For 18 molecules, Kd results are on record in patent publication US12091402B2 (Avilar Therapeutics, Inc., priority 2021, dated 2024).

The test has as its target T1, ASGPR (Homo sapiens, UniProt P07306).
T1 sequence (P07306 1-291): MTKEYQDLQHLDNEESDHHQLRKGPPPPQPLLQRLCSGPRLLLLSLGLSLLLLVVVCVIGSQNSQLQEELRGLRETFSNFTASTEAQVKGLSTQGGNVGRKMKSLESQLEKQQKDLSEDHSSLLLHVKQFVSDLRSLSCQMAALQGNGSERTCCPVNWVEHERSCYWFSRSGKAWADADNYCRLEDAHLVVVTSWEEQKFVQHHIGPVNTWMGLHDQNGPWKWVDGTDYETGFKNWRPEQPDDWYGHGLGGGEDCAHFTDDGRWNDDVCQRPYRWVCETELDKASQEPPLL
Description: Affinity to ASGPR by surface plasmon resonance (SPR). Background: SPR reads the build-up and loss of mass on a sensor chip optically.

Each structure is given as a SMILES string. Where a SMILES comes first, the peptide text is derived from it. Bridges are numbered along the chain shown (N, C = ends). The star is where a group is joined. X3 = O=C(CCOCC(COCCC(=O)NCCOCCOCCOCCOC[C@@]12CO[C@@H](O1)[C@H](Nc1nc(Cl)ns1)[C@@H](O)[C@H]2O)NC(=O)CCCCCn1cc(CCCC(=O)*)nn1)NCCOCCOCCOCCOC[C@@]12CO[C@@H](O1)[C@H](Nc1nc(Cl)ns1)[C@@H](O)[C@H]2O; PEG4 = NCCOCCOCCOCCOCCC(=O)O

As to `O=C(O)CNC(COCCC(=O)NCCOCCOCCOCCOC[C@H]1OC[C@H](Nc2nccc(C(F)(F)F)n2)[C@@H](O)[C@H]1O)COCCC(=O)NCCOCCOCCOCCOC[C@H]1OC[C@H](Nc2nccc(C(F)(F)F)n2)[C@@H](O)[C@H]1O` [A132], the Kd was less than 100 nM.
As for `CN(C)C[C@H]1OC[C@H](Nc2cncc(C(F)(F)F)n2)[C@@H](O)[C@H]1O` [A126], the figure is less than 1000 nM; as for `OC[C@H]1OC[C@H](Nc2ccc(F)c(C(F)(F)F)n2)[C@@H](O)[C@H]1O` [A82, (2R,3R,4R,5S)-5-((5-fluoro-6-(trifluoromethyl)pyridin-2-yl)amino)-2-(hydroxymethyl)tetrahydro-2H-pyran-3,4-diol], 1000 to 10000 nM; as for `C[Si](C)(C)c1cn(C[C@H]2OC[C@H](Nc3nccc(C(F)(F)F)n3)[C@@H](O)[C@H]2O)nn1` [A66, (2R,3R,4R,5S)-5-((4-(trifluoromethyl)pyrimidin-2-yl)amino)-2-((4-(trimethylsilyl)-1H-1,2,3-triazol-1-yl)methyl)tetrahydro-2H-pyran-3,4-diol], 1000 to 10000 nM.
As for `C=CCO[C@H]1O[C@H](Cn2cc(-c3cccc(OC)c3)nn2)[C@H](O)[C@H](O)[C@H]1NC(=O)C(F)(F)F` [A57, N-((2S,3R,4R,5R,6R)-2-(allyloxy)-4,5-dihydroxy-6-((4-(3-methoxyphenyl)-1H-1,2,3-triazol-1-yl)methyl)tetrahydro-2H-pyran-3-yl)-2,2,2-trifluoroacetamide], the figure is 1000 to 10000 nM.
Take `OC[C@H]1OC[C@H](Nc2nccnc2C(F)(F)F)[C@@H](O)[C@H]1O` [A101, (2R,3R,4R,5S)-2-(hydroxymethyl)-5-((3-(trifluoromethyl)pyrazin-2-yl)amino)tetrahydro-2H-pyran-3,4-diol]: the Kd lay in the range of 1000 to 10000 nM.
Consider `O=C(NC[C@H]1OC[C@H](Nc2cncc(C(F)(F)F)n2)[C@@H](O)[C@H]1O)[C@H]1C[C@H]1F` [A108, (1R,2R)—N-(((2R,3R,4R,5S)-3,4-dihydroxy-5-((6-(trifluoromethyl)pyrazin-2-yl)amino)tetrahydro-2H-pyran-2-yl)methyl)-2-fluorocyclopropane-1-carboxamide], for which the Kd was more than 20000 nM.
With `COc1cccc(-n2cc([C@H]3OC[C@H](Nc4nccc(C(F)(F)F)n4)[C@@H](O)[C@H]3O)nn2)c1` [A61, (2R,3R,4R,5S)-2-(1-(3-methoxyphenyl)-1H-1,2,3-triazol-4-yl)-5-((4-(trifluoromethyl)pyrimidin-2-yl)amino)tetrahydro-2H-pyran-3,4-diol], the Kd was in the range of 10000 to 100000 nM.
As for `OC[C@H]1OC[C@H](Nc2nc(C(F)(F)F)ccc2F)[C@@H](O)[C@H]1O` [A77, (2R,3R,4R,5S)-5-((3-fluoro-6-(trifluoromethyl)pyridin-2-yl)amino)-2-(hydroxymethyl)tetrahydro-2H-pyran-3,4-diol], the figure is less than 1000 nM; as for `O=C(O)COCCOCC(=O)NC(COCCC(=O)NCCOCCOCCOCCOC[C@H]1OC[C@H](Nc2nccc(C(F)(F)F)n2)[C@@H](O)[C@H]1O)COCCC(=O)NCCOCCOCCOCCOC[C@H]1OC[C@H](Nc2nccc(C(F)(F)F)n2)[C@@H](O)[C@H]1O` [A24, 1-((2R,3R,4R,5S)-3,4-dihydroxy-5-((4-(trifluoromethyl)pyrimidin-2-yl)amino)tetrahydro-2H-pyran-2-yl)-20-(1-((2R,3R,4R,5S)-3,4-dihydroxy-5-((4-(trifluoromethyl)pyrimidin-2-yl)amino)tetrahydro-2H-pyran-2-yl)-15-oxo-2,5,8,11,18-pentaoxa-14-azanonadecan-19-yl)-15,22-dioxo-2,5,8,11,18,24,27-heptaoxa-14,21-diazanonacosan-29-oic acid], less than 100 nM.
As for `Cc1cc(C#N)nc(N[C@H]2[C@H]3OC[C@](CO)(O3)[C@H](O)[C@@H]2O)n1` [A38, 2-[[(1S,2R,3R,4R,5S)-2,3-dihydroxy-1-(hydroxymethyl)-6,8-dioxabicyclo[3.2.1]octan-4-yl]amino]-6-methyl-pyrimidine-4-carbonitrile], the figure is 1000 to 10000 nM; as for `OCc1cn(C[C@H]2OC[C@H](Nc3nccc(C(F)(F)F)n3)[C@@H](O)[C@H]2O)nn1` [A68, (2R,3R,4R,5S)-2-((4-(hydroxymethyl)-1H-1,2,3-triazol-1-yl)methyl)-5-((4-(trifluoromethyl)pyrimidin-2-yl)amino)tetrahydro-2H-pyran-3,4-diol], less than 1000 nM; as for `O=C(O)COCCOCCOCC(=O)NC(COCCC(=O)NCCOCCOCCOCCOC[C@H]1OC[C@H](Nc2cncc(C(F)(F)F)n2)[C@@H](O)[C@H]1O)COCCC(=O)NCCOCCOCCOCCOC[C@H]1OC[C@H](Nc2cncc(C(F)(F)F)n2)[C@@H](O)[C@H]1O` [A26, 1-((2R,3R,4R,5S)-3,4-dihydroxy-5-((6-(trifluoromethyl)pyrazin-2-yl)amino)tetrahydro-2H-pyran-2-yl)-20-(1-((2R,3R,4R,5S)-3,4-dihydroxy-5-((6-(trifluoromethyl)pyrazin-2-yl)amino)tetrahydro-2H-pyran-2-yl)-15-oxo-2,5,8,11,18-pentaoxa-14-azanonadecan-19-yl)-15,22-dioxo-2,5,8,11,18,24,27,30-octaoxa-14,21-diazadotriacontan-32-oic acid], less than 100 nM.
As for `O=C(CCOCc1ccc(-c2cccc3ccncc23)c(OCCc2ccc(-c3cccc4ccncc34)cc2)c1)NCCOCCOCCOCCOC[C@@]12CO[C@@H](O1)[C@H](Nc1cncc(C(F)(F)F)n1)[C@@H](O)[C@H]2O` [Compound 56], the figure is less than 100 nM.
The molecule `[N-]=[N+]=NC[C@H]1OC[C@H](Nc2cncc(C(F)(F)F)n2)[C@@H](O)[C@H]1O` [A86, (2R,3R,4R,5S)-2-(azidomethyl)-5-((6-(trifluoromethyl)pyrazin-2-yl)amino)tetrahydro-2H-pyran-3,4-diol] showed an equilibrium dissociation constant (Kd) of less than 1000 nM.
In turn, `O=C(CCOCC(COCCC(=O)NCCOCCOCCOCCOC[C@H]1OC[C@H](Nc2nccc(C(F)(F)F)n2)[C@@H](O)[C@H]1O)NC(=O)COCCOCCOCC(=O)NCCN1C(=O)C=CC1=O)NCCOCCOCCOCCOC[C@H]1OC[C@H](Nc2nccc(C(F)(F)F)n2)[C@@H](O)[C@H]1O` [A130] showed a Kd of less than 100 nM.
As for `C=CCO[C@H]1O[C@H](Cn2cc(-c3cccc(OC)c3)nn2)[C@H](O)[C@H](O)[C@H]1Nc1nccc(C(F)(F)F)n1` [A58, (2R,3R,4R,5R,6S)-6-(allyloxy)-2-((4-(3-methoxyphenyl)-1H-1,2,3-triazol-1-yl)methyl)-5-((4-(trifluoromethyl)pyrimidin-2-yl)amino)tetrahydro-2H-pyran-3,4-diol], the figure is 1000 to 10000 nM.
For `CC(C)C[C@@H]1NC(=O)[C@@H](NC(=O)[C@@H](NC(=O)[C@H](CCC(N)=O)NC(=O)[C@H](Cc2c[nH]cn2)NC(=O)CCOCCOCCOCCOCCNC(=O)CCCc2cn(CCCCCC(=O)NC(COCCC(=O)NCCOCCOCCOCCOC[C@@]34CO[C@@H](O3)[C@H](Nc3nc(Cl)ns3)[C@@H](O)[C@H]4O)COCCC(=O)NCCOCCOCCOCCOC[C@@]34CO[C@@H](O3)[C@H](Nc3nc(Cl)ns3)[C@@H](O)[C@H]4O)nn2)C(C)C)CSSC[C@@H](C(=O)N[C@@H](Cc2ccccc2)C(=O)N[C@@H](CO)C(=O)N[C@H](C(N)=O)[C@@H](C)O)NC(=O)[C@H](C(C)C)NC(=O)[C@@H]2CCCN2C(=O)[C@H](CCCNC(=N)N)NC(=O)CNC(=O)[C@H](CCCNC(=N)N)NC(=O)[C@H](Cc2ccc(O)cc2)NC(=O)[C@H](CO)NC1=O` [Compound 19] ({X3-PEG4}-HQVCLSYRGRPVCFST-NH2; disulfide 4-13) the value was less than 100 nM.

As usually defined, the Kd is the equilibrium constant for the complex coming apart.
